Laboratory results reported in ChEMBL document CHEMBL5725783, “Substituted sulfonamide compounds” (2017).

Target: Transient receptor potential cation channel subfamily A member 1 (Homo sapiens, UniProt O75762)
Experiment: Fluorescence Assay: IC50s (effective concentration) of compounds on the human TRPA1 channel were determined using a Hamamatsu FDSS fluorescence plate reader. CHO cells expressing human TRPA1 were plated into 384-well plates, incubated overnight at 37° C., and loaded with BD calcium indicator dye for 1 hr at 37° C. followed by 15 minutes at room temperature. The assay buffer was Hank's Balanced Salt Solution (HBSS) containing 20 mM HEPES (pH readjusted to 7.4) along with 0.02% BSA.Following dye load and plate cool down, compounds were added to the cells using the FDSS while monitoring fluorescence to determine whether any of the test compounds have TRPA1 agonist activity. Plates were then incubated with compound for 20 minutes at room temperature prior to adding agonist. Following this incubation, […] cinnamaldehyde was added to all wells of the plate and block of this cinnamaldehyde induced calcium influx was measured.

Chain of Transient receptor potential cation channel subfamily A member 1 (O75762 whole entry): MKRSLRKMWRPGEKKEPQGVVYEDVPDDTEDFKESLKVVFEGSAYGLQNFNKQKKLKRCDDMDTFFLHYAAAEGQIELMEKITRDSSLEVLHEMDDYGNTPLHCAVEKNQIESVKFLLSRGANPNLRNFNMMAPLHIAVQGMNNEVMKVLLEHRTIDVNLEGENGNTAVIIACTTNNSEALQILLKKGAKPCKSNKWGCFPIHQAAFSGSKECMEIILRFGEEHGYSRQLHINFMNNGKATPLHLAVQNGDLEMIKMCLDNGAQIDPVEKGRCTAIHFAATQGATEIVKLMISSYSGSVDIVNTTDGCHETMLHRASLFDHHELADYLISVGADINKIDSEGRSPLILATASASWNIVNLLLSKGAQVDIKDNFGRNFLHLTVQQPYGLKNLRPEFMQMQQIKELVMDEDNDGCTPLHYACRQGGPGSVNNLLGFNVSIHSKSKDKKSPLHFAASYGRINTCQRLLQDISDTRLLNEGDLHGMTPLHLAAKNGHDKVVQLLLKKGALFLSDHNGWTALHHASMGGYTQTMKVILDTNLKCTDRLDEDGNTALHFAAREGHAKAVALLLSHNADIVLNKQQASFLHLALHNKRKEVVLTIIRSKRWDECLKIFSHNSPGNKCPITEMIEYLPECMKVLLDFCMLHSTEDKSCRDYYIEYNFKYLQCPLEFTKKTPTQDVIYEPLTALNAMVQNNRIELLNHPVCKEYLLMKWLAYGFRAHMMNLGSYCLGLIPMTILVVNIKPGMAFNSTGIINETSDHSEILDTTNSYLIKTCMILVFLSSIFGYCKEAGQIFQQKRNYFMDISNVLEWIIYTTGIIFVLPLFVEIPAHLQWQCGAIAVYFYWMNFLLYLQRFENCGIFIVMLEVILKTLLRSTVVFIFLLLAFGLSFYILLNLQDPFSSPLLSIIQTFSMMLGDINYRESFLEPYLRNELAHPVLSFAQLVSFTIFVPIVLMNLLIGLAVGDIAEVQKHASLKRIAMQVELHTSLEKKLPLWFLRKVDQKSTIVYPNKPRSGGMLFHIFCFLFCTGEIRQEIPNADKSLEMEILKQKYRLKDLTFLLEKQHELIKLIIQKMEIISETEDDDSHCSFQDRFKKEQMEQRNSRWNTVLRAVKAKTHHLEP

## CC(C)N(CC(=O)NCc1cc(C2=CCC(C(F)(F)F)CC2)ncn1)S(=O)(=O)c1ccc(F)cc1 (stereo unspecified)
  IC50: 13 nM
